Reference: the supplement of paper PMC5908809

Key:
[1] = tested on: normal NK cells expanded with K562-aAPC; experiment: drug sensitivity score (DSS) (DSS units); higher = more sensitive; extreme values may be limits of the assay; conditions: 72 h; IL-2 2.5 ng/mL
Protocol: (§1)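 Drug sensitivity and resistance testing on K562-aAPC-expanded normal NK cells: 5 concentrations (10-fold steps over a 10,000-fold range), 72 h at 37 °C, viability by CellTiter-Glo normalised to DMSO and benzethonium chloride controls; DSS from the fitted curve.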

DERL-7 (IL-2 2.5 ng/mL) [2] = experiment: as above; conditions: 72 h
[3] = tested on: normal primary NK cells, pool 2 (3 donors) (IL-2 2.5 ng/mL); experiment: as above; conditions: 72 h
[4] = tested on: normal primary NK cells, pool 1 (3 donors), resting (IL-2 0 ng/mL); experiment: as above; conditions: 72 h
NKL (IL-2 2.5 ng/mL) [5] = experiment: as above; conditions: 72 h
SNK-6 (IL-2 2.5 ng/mL) [6] = experiment: as above; conditions: 72 h
KHYG-1 (IL-2 2.5 ng/mL) [7] = experiment: as above; conditions: 72 h
IMC-1 (IL-2 20 ng/mL) [8] = experiment: as above; conditions: 72 h
NK-92 (IL-2 2.5 ng/mL) [9] = experiment: as above; conditions: 72 h
KAI3 (IL-2 2.5 ng/mL) [10] = experiment: as above; conditions: 72 h
YT (IL-2 2.5 ng/mL) [11] = experiment: as above; conditions: 72 h
[12] = tested on: normal primary NK cells, pool 3 (3 donors) (IL-2 2.5 ng/mL); experiment: as above; conditions: 72 h
[13] = tested on: normal primary NK cells, pool 1 (3 donors) (IL-2 2.5 ng/mL); experiment: as above; conditions: 72 h
NK-YS (IL-2 2.5 ng/mL) [14] = experiment: as above; conditions: 72 h
DERL-7 (IL-2 2.5 ng/mL) [15] = experiment: percent inhibition of viability; higher = more inhibition; conditions: 72 h
[16] = tested on: normal primary NK cells, pool 2 (3 donors) (IL-2 2.5 ng/mL); experiment: as above; conditions: 72 h
[17] = tested on: normal primary NK cells, pool 1 (3 donors), resting (IL-2 0 ng/mL); experiment: as above; conditions: 72 h
NKL (IL-2 2.5 ng/mL) [18] = experiment: as above; conditions: 72 h
SNK-6 (IL-2 2.5 ng/mL) [19] = experiment: as above; conditions: 72 h
KHYG-1 (IL-2 2.5 ng/mL) [20] = experiment: as above; conditions: 72 h
IMC-1 (IL-2 20 ng/mL) [21] = experiment: as above; conditions: 72 h
NK-92 (IL-2 2.5 ng/mL) [22] = experiment: as above; conditions: 72 h
KAI3 (IL-2 2.5 ng/mL) [23] = experiment: as above; conditions: 72 h
YT (IL-2 2.5 ng/mL) [24] = experiment: as above; conditions: 72 h
[25] = tested on: normal primary NK cells, pool 3 (3 donors) (IL-2 2.5 ng/mL); experiment: as above; conditions: 72 h
[26] = tested on: normal primary NK cells, pool 1 (3 donors) (IL-2 2.5 ng/mL); experiment: as above; conditions: 72 h
NK-YS (IL-2 2.5 ng/mL) [27] = experiment: as above; conditions: 72 h
[28] = tested on: normal NK cells expanded with K562-aAPC; experiment: as above; conditions: 72 h, IL-2 2.5 ng/mL
Protocol: as §1

S=P(N1CC1)(N1CC1)N1CC1 [Thio-TEPA] (max concentration tested 50000 nM)
Conditions	drug sensitivity score
DERL-7 (IL-2 2.5 ng/mL) [2]	0
IMC-1 (IL-2 20 ng/mL) [8]	0
KAI3 (IL-2 2.5 ng/mL) [10]	8.32
KHYG-1 (IL-2 2.5 ng/mL) [7]	0
NK-92 (IL-2 2.5 ng/mL) [9]	5.84
NK-YS (IL-2 2.5 ng/mL) [14]	1.65
NKL (IL-2 2.5 ng/mL) [5]	8.54
SNK-6 (IL-2 2.5 ng/mL) [6]	1.69
YT (IL-2 2.5 ng/mL) [11]	0
[1]	0
[3]	1.52
[4]	1.68
[12]	0
[13]	0

percent inhibition of viability [%]
Conditions	5 nM	50 nM	500 nM	5000 nM	50000 nM
DERL-7 (IL-2 2.5 ng/mL) [15]	1.93	5.03	-0.04	1.45	3.25
IMC-1 (IL-2 20 ng/mL) [21]	-2.71	-4.91	-3.42	-4.6	8.77
KAI3 (IL-2 2.5 ng/mL) [23]	-3.61	-4.29	12.8	35.4	69.6
KHYG-1 (IL-2 2.5 ng/mL) [20]	-7.42	-4.16	1.44	6.58	8.07
NK-92 (IL-2 2.5 ng/mL) [22]	-3.47	8.15	14.3	25.1	37.1
NK-YS (IL-2 2.5 ng/mL) [27]	-1.57	-3.69	3	9.54	24.2
NKL (IL-2 2.5 ng/mL) [18]	-8.09	4.28	15.5	33.8	72.4
SNK-6 (IL-2 2.5 ng/mL) [19]	-0.04	-12.4	-4.8	-5.86	41.2
YT (IL-2 2.5 ng/mL) [24]	-4.88	-5.74	1.43	6.47	8.31
[16]	-1.52	9.19	11.7	8.43	19.8
[17]	-8.22	7.58	6.34	14.9	17.1
[25]	-5.53	7.66	3.04	4.82	3.08
[26]	0.27	11.7	6.98	8.81	2.16
[28]	-5.81	-5.71	-4.89	3.45	9
